According to US10889607B2, “Sialic acid analogs” (Ultragenyx Pharmaceutical Inc., priority 2011, dated 2021):
Read-outs that look alike come from different tables or passages of the source.

Columns and labels:
[1] = Sialic acid/prodrug single dose PO crossover pharmacokinetics study; format: in vivo, cynomolgus monkeys; conditions: for peak serum concentration (Cmax): serum sialic acid, mean n=3, single 100 mg/kg PO, fasted cynomolgus monkeys; for extent of the absorption: sialic acid API vs prodrug, single 100 mg/kg PO, cynomolgus monkeys
From the text: Example 4. Sialic Acid/Prodrug Single Dose PO Crossover Pharmacokinetics Study in Cynomolgus Monkeys
A single oral dose crossover pharmacokinetic study of sialic acid (API) and prodrug (Compound 1—a valine ester of sialic acid as described above) was run in fasted cynomolgus monkeys (n=3). For this study, it was essential that the GI tract of the in vivo model have some similarities to human metabolism in order for the Pep Ti transporter system to be present, thus monkeys were chosen since they carry the same transporter in the gut as humans.
The 100 mg/kg dose level chosen was based on what is known for dosing of sialic acid which has passed complete toxicological evaluation and is safe up to 2,000 mg/kg NOAEL in dogs and rats. On Day 1, three female cynomolgus monkeys were dosed with 100 mg/kg sialic acid (API) and on Day 8 the same three cynomolgus monkeys were dosed with 100 mg/kg of the prodrug. Serum was collected at the following timepoints: predose, then 5 min, 15 min, 30 min, 1 hr, 2 hrs, 4 hrs, 8 hrs, 12 hrs and 24 hrs postdose. Urine samples were collected predose overnight, then at intervals 0-4 hrs, 4-8 hrs, 8-12 hrs and 12-24 hrs post dose. The data in FIG. 2A show the mean absorption values (n=3) of serum sialic acid on Days 1 and 8. The prodrug peak serum concentration is earlier (1 hr) than sialic acid API (2 hrs). […] The pharmacokinetic data in FIGS. 2B and 2C show group averages of sialic acid concentrations on Days 1 and 8.

[2] = rat, in vivo; cited from earlier work
[3] = dog, in vivo; cited from earlier work

Structure (SMILES) | peak serum concentration (Cmax) [1] | extent of the absorption [1] | NOAEL [2] | NOAEL [3]
CC(=O)NC1C(O)CC(O)(C(=O)O)OC1C(O)C(O)COC(=O)C(N)C(C)C (stereo not drawn) [Compound 1, 5-Acetylamino-6-[3-(2-amino-3-methyl-butyryloxy)-1,2-dihydroxy-propyl]-2,4-dihydroxy-tetrahydro-pyran-2-carboxylic acid] | 0.857 µg/mL | similar |  | 
CC(=O)N[C@H]1[C@H]([C@H](O)[C@H](O)CO)OC(O)(C(=O)O)C[C@@H]1O (stereo partly drawn) [sialic acid, N-acetylneuraminic acid] | 1.623 µg/mL | similar | 2,000 mg/kg | 2,000 mg/kg
